# Laboratory results from patent publication US20050014268A1, “Genetic transformation using a PARP inhibitor” (Bayer BioScience NV, priority 1995, published 2005).
# Tested on: Wheat embryogenic callus
# Test: Tissue culture of wheat embryogenic callus on W2 medium containing niacinamide
# Format: cell-based
# Experimental: After the one day incubation the capacity of the transformed and control tissues to reduce 2,3,5-triphenyltetrazolium chloride (TTC) is measured e.g. by the following procedure which is modified from Towill and Mazur (supra): • incubate the tissues for 1 to 4 hours in K-phosphate buffer (pH 7.4) containing 10 mM TTC and 0.1% Tween20. […] The O.D. of the control extract is subtracted from the OD of the TTC-reacted extracts. In the above conditions 0.1 mM reduced TTC corresponds to an OD485 of 0.214 or OD545 of 1.025 (light path 1 cm). • the reducing capacity of the transformed plant line is compared to that of the control line. Wheat embryogenic callus was cultured on W2 medium (see Example 2).
smiles,measurement,setting,value
NC(=O)c1cccnc1 [niacinamide],growth of the tissue (rate relative to the normal rate),"250 mg/l (approx. 2 mM) niacinamide in W2 medium, growth slowed after 4 days, rate after 4 weeks",approximately 30%
same,viability of the tissue,"250 mg/l niacinamide in W2 medium, at least one month",remained viable for extended periods of time
same,TTC-reducing capacity of the tissue,after 4-5 days of incubation with niacinamide,substantially decreased
same,growth after removal of niacinamide from the medium,niacinamide subsequently removed from the medium,started to grow normally again
